Reference: patent US20140335050A1, “METHODS, COMPOSITIONS, AND KITS FOR THE TREATMENT OF CANCER” (The General Hospital Corporation, priority 2011, published 2014)

Tests used:
Assay type in all cases: cell-based, human
[1] = system: MU89 melanoma cells; experiment: Tumor cell/T cell co-culture IL-2 ELISA (Melan-A/MART-1 specific TCR Jurkat line J-TCR-M1 as responder); details: for Outcome in the primary co-culture IL-2 screen (hit or not): ICCB Known Bioactives Library, 10 μM; for Fold increase (IL-2 relative to untreated controls), hits from pilot screen: about 10 μM, 72 hours treatment, then 24 hours co-culture
Source text: The assay relies on the use of an antigen-specific responder T cell line. […] The chosen TCR reacts specifically to a Melan-A/MART-1 decapeptide (26[…]35) presented by HLA-A2, with appropriate triggering of T cell activation. We then used a lentiviral vector system for transduction of this specific TCR into the J.RT3-T3.5 T cell line, a Jurkat cell derivative which fails to express endogenous surface TCR through a mutation in its beta chain.
We evaluated several candidate melanoma cell lines for the ability to stimulate the J-TCR-M1 cell line. Levels of Melan-A/MART-1 (determined by intracellular staining and flow cytometry) and corresponding levels of induced IL-2 (determined by coculture with J-TCR-M1 and IL-2 ELISA) were tested for different melanoma cell lines.
The 480 compounds were tested in six parallel 96 well plates. The first two columns (16 wells) of each plate were used for standards (8 wells), untreated controls (4 wells), and positive controls (4 wells). The other ten columns (80 wells) were used for testing compounds in separate wells. A100 μl aliquot containing 5×10^4 MU89 cells was added to wells that contained 0.1 μl of each test drug diluted in 50 μl of RPMI media. The plates were incubated with drug for 72 hours at 37° C. in a humidified incubator with 5% CO2. After 72 hours, each well received 2.5×10^4J-TCR-M1 cells in 50 μl medium, and then incubated a further 24 hours. At the conclusion of the 24 hour co-culture period, each plate was centrifuged to pellet the cells and 100 μl supernatant fluid was collected from each well and plated in a parallel 96 well flat bottom well for IL-2 ELISA assay.
Melanoma cells were treated with hits from the primary screen for three days prior to counting and plating for the coculture assay (cells were washed and resuspended in fresh medium that no longer contained the treatment agents during the co-culture). A100 μl volume of 5×10^5 cells/ml tumor cells were mixed with 50 μl of […] T cells in a 96-well V-bottom plate and incubated overnight (16-24 hours). Plates were centrifuged to pellet the cells and 100 μl of supernatant fluid was removed from each well for cytokine assay. To assess antigen-specific T cell responses, a final concentration of 3.33 μg/ml Melan-A/MART-1 peptide (26[…]35 (A27L from wild type)) was added to the co-culture.
The protocol for evaluation of the cytokine IL-2 was performed using a the BD OptEAI kit, human IL-2 ELISA set from BD Biosciences (San Diego, Calif.) following the manufacturer's recommendations. The absorbance 450 nm was read in a BioRad 3550 plate reader. A standard curve using known concentrations of IL-2 (from 500 to 8 pg/ml) was included in each ELISA plate. IL-2 levels for experimental samples (pg/ml) were calculated from the standard curve.
100 μl of 5×10^5 tumor cells/ml were mixed with 50 μl of T cells (at 5×10^5 cells/ml) in a 96-well V-bottom plate and incubated overnight (16-24 hours). Plates were centrifuged to pellet the cells and 120 μl of supernatant fluid was removed from each well for cytokine assay. To assess antigen-specific T cell responses, 3.33 μg/ml Melan-A/MART-1 peptide was added to the co-culture.
The protocols for evaluation of either IL-2 or IFN-gamma were similar, following the manufacturer's recommendations. A standard curve using known concentrations of each cytokine was included in each ELISA experiment. ELISA plates were coated with capture antibody and then washed with 1×PBS 0.5% Tween-20. Wells were blocked with 1×PBS 1% FBS for 1 hour and rewashed.

[2] = system: MU89 melanoma cell line; experiment: Antibody staining and flow cytometry (intracellular Melan-A/MART-1, gp100, TRP-2; surface MHC Class I/II); details: MU89 cells
Procedure: (§1) Cells were fixed with 1% formaldehyde, permeabilized with 0.1% saponin, stained with monoclonal antibodies to melanocyte antigens. Antibodies were obtained with specificity for: MART-1 from Vector Labs (Burlingame, Calif.); gp100 HMB45 from DakoCytomation (Carpinteria, Calif.) and then visualized with goat anti-mouse FITC-conjugated secondary antibody from Invitrogen (Fredrick, Md.). The level of EGFP was determined by flow cytometry of unfixed cells that were washed and resuspended in 1×PBS.
(§2) Cells were plated at a density of 1×10^5 in 1 ml of medium in a 24-well plate and cultured for varying times as indicated in results. […] After incubation, cells were collected by trypsinization and then evaluated by flow cytometry.
(§3) Intracellular staining and flow cytometric analyses of cytoplasmic Melan-A/MART-1, and gp100 expression were performed as described previously. Cells were fixed with 1% formaldehyde, permeabilized with 0.1% saponin, stained with monoclonal antibodies to melanocyte antigens. Antibodies were obtained with specificity for: Melan-A/MART-1 from Vector Labs (Burlingame, Calif.); gp100/HMB45 from DakoCytomation (Carpinteria, Calif.) and then visualized with goat anti-mouse FITC-conjugated secondary antibody from Invitrogen (Frederick, Md.). The level of EGFP was determined by flow cytometry of unfixed cells washed and resuspended in 1×PBS. Surface staining of MHC Class I was carried out using the antibody W6/32 on cells harvested with Cell Stripper from MediaTech Inc. (Manassas, Va.) and carried out on ice.
(§4) Cell were seeded at 1×10^6 cells in a T25 flask with 10 ml of media for the 4 day IFN-beta pre-treatments. Cells were then harvested and plated in 24 well plate at 1×10^5 cells per well in 1 ml of media for 3 day treatments.
(§5) For surface staining of HLA Class I and II antigens, cells were harvested using CellStripper™ from Mediatech (Manassas, Va.). All staining steps were performed on ice. Following a first incubation with antibody to Class I (W6/32) or Class II (L243) for 30 minutes. Stained cells were washed twice with cold PBS and then stained with a goat anti-mouse FITC secondary antibody to allow for quantitative analysis by flow cytometry. For evaluation of cytoplasmic antigens, including Melan-A/MART-1 and gp100, cells were first fixed in paraformaldehyde and permeabilized with saponin as previously described. Staining for cytoplasmic antigens was carried out at room temperature (22° C.).

[3] = system: U-118 MG glioma cell line; experiment: Antibody staining and flow cytometry (intracellular gp100; surface MHC Class I/II); details: U118 cells; Table 20; single agent or simultaneous combination
Procedure: as §1, §2, §3, §4, §5

[4] = system: HeLa cervical carcinoma cells; experiment: Surface antibody staining and flow cytometry (MHC Class I/II); details: HeLa cells
Procedure: as §3, §4, §5

[5] = system: MCF-7 breast cancer cells; experiment: as above; details: MCF-7 cells; Table 20; single agent or simultaneous combination
Procedure: as §3, §4, §5

[6] = system: U2-OS osteosarcoma cells; experiment: as above; details: U2-OS cells; Table 20; single agent or simultaneous combination
Procedure: as §3, §4, §5

[7] = Table 20, single agent or simultaneous combination
[8] = Table 21, no pre-treatment, treatment as labelled
[9] = Table 21, pre-treatment PU-H71 (3 days), then treatment as labelled
[10] = Table 21, substance given as pre-treatment (3 days) only, no subsequent treatment

Compound: COc1cccc2c1C(=O)c1c(O)c3c(c(O)c1C2=O)C[C@@](O)(C(=O)CO)C[C@@H]3O[C@H]1C[C@H](N)[C@H](O)[C@H](C)O1 [doxorubicin]
- Outcome in the primary co-culture IL-2 screen (hit or not) [1]: failed to be identified

Compound: COc1cccc2c1C(=O)c1c(O)c3c(c(O)c1C2=O)C[C@@](O)(C(C)=O)C[C@@H]3O[C@H]1C[C@H](N)[C@H](O)[C@H](C)O1 [daunorubicin]
- Outcome in the primary co-culture IL-2 screen (hit or not) [1]: interferes with the direct co-culture assay

Compound: IFN-G
- L243 (MHC Class II surface staining) [2, 7]: 64.3
- W6/32 (MHC Class I surface staining) [2, 7]: 86.7
- L243 (MHC Class II surface staining) [2, 8]: 81
- L243 (MHC Class II surface staining) [2, 9]: 90
- L243 (MHC Class II surface staining) [2, 10]: 64
- L243 (MHC Class II surface staining) [3]: 53.6
- W6/32 (MHC Class I surface staining) [3]: 232.8
- L243 (MHC Class II surface staining) [4, 7]: 86.0
- W6/32 (MHC Class I surface staining) [4, 7]: 464.8
- L243 (MHC Class II surface staining) [4, 8]: 97
- L243 (MHC Class II surface staining) [4, 9]: 33
- L243 (MHC Class II surface staining) [4, 10]: 76
- L243 (MHC Class II surface staining) [5]: 59.1
- W6/32 (MHC Class I surface staining) [5]: 478.5
- L243 (MHC Class II surface staining) [6]: 142.8
- W6/32 (MHC Class I surface staining) [6]: 397.1

Compound: COc1ccc(Cl)cc1C(=O)NCCc1ccc(S(=O)(=O)NC(=O)NC2CCCCC2)cc1 [Glyburide]
- Fold increase (IL-2 relative to untreated controls), hits from pilot screen [1]: 2.6 fold

Compound: CCCCCCCCCCCCCCCCCCc1ccc(C(=O)C=CC(=O)O)cc1 [OBAA, 3-(4-octadecyl)benzoylacrylic acid]
- Fold increase (IL-2 relative to untreated controls), hits from pilot screen [1]: 5.9 fold

Compound: N#CC(=C(/N)Sc1ccccc1N)/C(C#N)=C(\N)Sc1ccccc1N [U0126]
- Outcome in the primary co-culture IL-2 screen (hit or not) [1]: failed to be identified

Compound: CC[C@@]1(O)C(=O)OCc2c1cc1n(c2=O)Cc2cc3ccccc3nc2-1 [camptothecin]
- Outcome in the primary co-culture IL-2 screen (hit or not) [1]: failed to be identified

Compound: COc1cc([C@@H]2c3cc4c(cc3[C@@H](O[C@@H]3O[C@@H]5CO[C@@H](C)O[C@H]5[C@H](O)[C@H]3O)[C@H]3COC(=O)[C@H]23)OCO4)cc(OC)c1O [etoposide]
- Outcome in the primary co-culture IL-2 screen (hit or not) [1]: failed to be identified

Compound: COc1c(C=O)c(O)cc2c1C(=O)c1ccccc1C2=O [Damnacanthal]
- Fold increase (IL-2 relative to untreated controls), hits from pilot screen [1]: 2.1 fold

Compound: O=C1CN(/N=C/c2ccc(-c3ccc([N+](=O)[O-])cc3)o2)C(O)=N1 [Dantrolene]
- Fold increase (IL-2 relative to untreated controls), hits from pilot screen [1]: 2.4 fold

Compound: COc1cccc(-c2cc(=O)c3ccccc3o2)c1N [PD98059]
- Outcome in the primary co-culture IL-2 screen (hit or not) [1]: failed to be identified

Compound: Fc1ccc(C(c2ccc(F)cc2)N2CCN(C/C=C/c3ccccc3)CC2)cc1 [Flunarizine]
- Fold increase (IL-2 relative to untreated controls), hits from pilot screen [1]: 11.9 fold
